Experiment [1] addresses Focal adhesion kinase 1 (Homo sapiens) (UniProt Q05397). The experiment is described as follows: Inhibition of recombinant human FAK (411 to 686 residues) assessed as residual activity at 10 uM using EEEEYEEEEEEYYIIEEEEEEYEEEEEEYYEEEEEEKKKK as substrate measured after 40 mins in presence of [gamma33P]ATP by scintillation counting method.
Experiment [2] has as its target Tyrosine-protein kinase HCK (Homo sapiens) (UniProt P08631). The experiment is described as follows: Inhibition of recombinant human HCK (230 to 497 residues) assessed as residual activity at 10 uM using Cdc2 peptide as substrate measured after 40 mins in presence of [gamma33P]ATP by scintillation counting method.
For experiment [3], the target named is Vascular endothelial growth factor receptor 1 (Homo sapiens) (UniProt P17948). Description: Inhibition of recombinant human Flt1 (783 to end residues) assessed as residual activity at 10 uM using KKKSPGEYVNIEFG as substrate measured after 40 mins in presence of [gamma33P]ATP by scintillation counting method.
Experiment [4] deals with Serine/threonine-protein kinase SBK1 (Homo sapiens) (UniProt Q52WX2). The experiment is described as follows: Inhibition of recombinant full-length human SBK1 assessed as residual activity at 10 uM using KKLRRTLSVA as substrate measured after 120 mins in presence of [gamma33P]ATP by scintillation counting method.
In experiment [5] the target is Interleukin-1 receptor-associated kinase 1 (Homo sapiens) (UniProt P51617). The experiment is described as follows: Inhibition of recombinant human IRAK1 (194 to end residues) assessed as residual activity at 10 uM using myelin basic protein as substrate measured after 40 mins in presence of [gamma33P]ATP by scintillation counting method.
The test system of experiment [6] is PI3-kinase p110-alpha/p85-alpha (Homo sapiens), P27986+P42336 [E542K]. Description: Inhibition of recombinant full-length human PI3K p110alpha/p85alpha E542K mutant assessed as residual activity at 10 uM using phosphatidylinositol-4, 5-bisphosphate as substrate measured after 40 mins by fluorescence assay. It counts as protein-complex assay.
The test system of another experiment is HCT-116. Description: Induction of apoptosis in human HCT116 cells assessed as early apoptotic cells at 100 nM measured after 48 hrs by Annexin V-FITC/propidium iodide staining-based flow cytometry (reference value: 0.418%). The class given is functional.
Experiment [7] concerns the target Dual specificity mitogen-activated protein kinase kinase 3 (Homo sapiens) (UniProt P46734). The experiment is described as follows: Inhibition of human MKK3 assessed as residual activity at 10 uM by radiometric method.

Serine/threonine-protein kinase SBK1 (Homo sapiens), sequence (Q52WX2 whole entry): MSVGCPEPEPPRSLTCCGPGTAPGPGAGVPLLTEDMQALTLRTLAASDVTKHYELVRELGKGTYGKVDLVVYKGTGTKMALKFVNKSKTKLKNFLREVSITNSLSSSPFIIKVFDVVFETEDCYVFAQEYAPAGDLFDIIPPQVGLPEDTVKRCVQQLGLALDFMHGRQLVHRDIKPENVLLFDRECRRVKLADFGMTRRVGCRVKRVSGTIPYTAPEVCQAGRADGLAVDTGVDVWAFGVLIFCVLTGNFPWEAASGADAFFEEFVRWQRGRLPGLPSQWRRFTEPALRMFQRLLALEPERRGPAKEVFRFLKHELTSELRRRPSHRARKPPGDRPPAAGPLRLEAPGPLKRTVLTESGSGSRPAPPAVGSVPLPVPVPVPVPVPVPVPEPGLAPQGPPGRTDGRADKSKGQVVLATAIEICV
Vascular endothelial growth factor receptor 1 (Homo sapiens), sequence (P17948 whole entry): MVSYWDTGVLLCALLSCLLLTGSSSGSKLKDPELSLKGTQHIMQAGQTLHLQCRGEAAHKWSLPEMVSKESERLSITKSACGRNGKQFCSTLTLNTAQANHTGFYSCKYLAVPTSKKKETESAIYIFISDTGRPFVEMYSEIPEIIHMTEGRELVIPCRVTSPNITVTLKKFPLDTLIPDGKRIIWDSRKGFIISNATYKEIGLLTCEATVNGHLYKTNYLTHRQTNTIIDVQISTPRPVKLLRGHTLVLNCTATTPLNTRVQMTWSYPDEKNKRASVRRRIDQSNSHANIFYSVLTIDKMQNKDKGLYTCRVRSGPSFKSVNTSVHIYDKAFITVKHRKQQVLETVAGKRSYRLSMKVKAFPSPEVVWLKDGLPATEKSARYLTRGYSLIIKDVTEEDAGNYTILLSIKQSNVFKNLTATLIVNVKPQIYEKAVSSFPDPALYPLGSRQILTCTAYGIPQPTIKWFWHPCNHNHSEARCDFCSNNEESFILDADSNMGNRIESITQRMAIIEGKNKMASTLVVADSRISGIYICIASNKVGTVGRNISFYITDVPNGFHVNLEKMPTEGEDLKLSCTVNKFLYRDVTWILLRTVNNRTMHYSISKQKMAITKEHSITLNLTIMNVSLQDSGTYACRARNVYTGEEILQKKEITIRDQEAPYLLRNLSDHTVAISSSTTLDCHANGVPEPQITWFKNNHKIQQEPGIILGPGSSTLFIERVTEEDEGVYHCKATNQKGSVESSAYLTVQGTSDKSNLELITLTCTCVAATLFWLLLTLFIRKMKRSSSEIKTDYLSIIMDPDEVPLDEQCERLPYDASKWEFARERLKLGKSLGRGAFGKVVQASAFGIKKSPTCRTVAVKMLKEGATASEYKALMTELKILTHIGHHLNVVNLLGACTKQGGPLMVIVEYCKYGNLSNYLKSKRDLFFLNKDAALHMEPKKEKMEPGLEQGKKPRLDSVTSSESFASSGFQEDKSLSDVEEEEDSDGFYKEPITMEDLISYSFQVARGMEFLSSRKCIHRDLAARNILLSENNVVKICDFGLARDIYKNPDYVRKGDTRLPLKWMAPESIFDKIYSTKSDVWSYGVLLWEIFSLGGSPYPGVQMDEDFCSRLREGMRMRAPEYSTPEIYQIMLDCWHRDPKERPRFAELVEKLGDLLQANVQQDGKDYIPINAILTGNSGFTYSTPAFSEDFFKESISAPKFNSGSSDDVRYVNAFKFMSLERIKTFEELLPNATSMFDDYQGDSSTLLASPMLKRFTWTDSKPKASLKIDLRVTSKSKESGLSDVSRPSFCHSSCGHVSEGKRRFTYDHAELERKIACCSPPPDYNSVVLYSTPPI
Tyrosine-protein kinase HCK (Homo sapiens), sequence (P08631 2-526 limits assumed): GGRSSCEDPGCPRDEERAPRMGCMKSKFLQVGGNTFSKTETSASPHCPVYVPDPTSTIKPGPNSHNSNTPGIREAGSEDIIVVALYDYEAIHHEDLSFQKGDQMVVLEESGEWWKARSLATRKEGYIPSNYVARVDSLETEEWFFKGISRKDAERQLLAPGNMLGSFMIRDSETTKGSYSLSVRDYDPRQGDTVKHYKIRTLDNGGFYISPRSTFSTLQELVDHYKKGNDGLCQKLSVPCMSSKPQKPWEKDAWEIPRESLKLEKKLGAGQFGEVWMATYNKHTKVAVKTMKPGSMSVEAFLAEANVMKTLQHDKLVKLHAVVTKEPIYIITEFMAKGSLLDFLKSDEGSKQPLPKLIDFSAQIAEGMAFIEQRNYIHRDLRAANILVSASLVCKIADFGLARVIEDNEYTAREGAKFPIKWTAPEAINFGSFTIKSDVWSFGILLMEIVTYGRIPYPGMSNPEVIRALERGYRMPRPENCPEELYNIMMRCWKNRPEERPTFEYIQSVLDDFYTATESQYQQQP
Interleukin-1 receptor-associated kinase 1 (Homo sapiens), sequence (P51617 whole entry, looked up): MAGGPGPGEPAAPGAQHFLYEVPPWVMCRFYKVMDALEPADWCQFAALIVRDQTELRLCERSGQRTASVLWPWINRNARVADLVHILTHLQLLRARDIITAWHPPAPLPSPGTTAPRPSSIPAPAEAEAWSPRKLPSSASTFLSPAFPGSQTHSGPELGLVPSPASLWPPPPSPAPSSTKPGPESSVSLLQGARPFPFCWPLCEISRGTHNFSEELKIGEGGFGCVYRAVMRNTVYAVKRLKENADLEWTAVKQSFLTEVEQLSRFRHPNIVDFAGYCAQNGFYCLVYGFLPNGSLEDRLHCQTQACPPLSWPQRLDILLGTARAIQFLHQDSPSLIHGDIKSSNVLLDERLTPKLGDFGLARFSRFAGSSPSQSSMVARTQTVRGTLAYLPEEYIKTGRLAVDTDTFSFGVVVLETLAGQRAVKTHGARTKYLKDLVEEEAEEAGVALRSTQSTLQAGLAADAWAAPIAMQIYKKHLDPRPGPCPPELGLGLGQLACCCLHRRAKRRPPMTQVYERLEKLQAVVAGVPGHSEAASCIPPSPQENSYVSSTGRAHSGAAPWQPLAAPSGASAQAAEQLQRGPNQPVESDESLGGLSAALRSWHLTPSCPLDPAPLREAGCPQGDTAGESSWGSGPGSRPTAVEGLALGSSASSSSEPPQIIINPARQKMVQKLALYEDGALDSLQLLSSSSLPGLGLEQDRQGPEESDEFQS
Focal adhesion kinase 1 (Homo sapiens), sequence (Q05397 2-1052 limits assumed): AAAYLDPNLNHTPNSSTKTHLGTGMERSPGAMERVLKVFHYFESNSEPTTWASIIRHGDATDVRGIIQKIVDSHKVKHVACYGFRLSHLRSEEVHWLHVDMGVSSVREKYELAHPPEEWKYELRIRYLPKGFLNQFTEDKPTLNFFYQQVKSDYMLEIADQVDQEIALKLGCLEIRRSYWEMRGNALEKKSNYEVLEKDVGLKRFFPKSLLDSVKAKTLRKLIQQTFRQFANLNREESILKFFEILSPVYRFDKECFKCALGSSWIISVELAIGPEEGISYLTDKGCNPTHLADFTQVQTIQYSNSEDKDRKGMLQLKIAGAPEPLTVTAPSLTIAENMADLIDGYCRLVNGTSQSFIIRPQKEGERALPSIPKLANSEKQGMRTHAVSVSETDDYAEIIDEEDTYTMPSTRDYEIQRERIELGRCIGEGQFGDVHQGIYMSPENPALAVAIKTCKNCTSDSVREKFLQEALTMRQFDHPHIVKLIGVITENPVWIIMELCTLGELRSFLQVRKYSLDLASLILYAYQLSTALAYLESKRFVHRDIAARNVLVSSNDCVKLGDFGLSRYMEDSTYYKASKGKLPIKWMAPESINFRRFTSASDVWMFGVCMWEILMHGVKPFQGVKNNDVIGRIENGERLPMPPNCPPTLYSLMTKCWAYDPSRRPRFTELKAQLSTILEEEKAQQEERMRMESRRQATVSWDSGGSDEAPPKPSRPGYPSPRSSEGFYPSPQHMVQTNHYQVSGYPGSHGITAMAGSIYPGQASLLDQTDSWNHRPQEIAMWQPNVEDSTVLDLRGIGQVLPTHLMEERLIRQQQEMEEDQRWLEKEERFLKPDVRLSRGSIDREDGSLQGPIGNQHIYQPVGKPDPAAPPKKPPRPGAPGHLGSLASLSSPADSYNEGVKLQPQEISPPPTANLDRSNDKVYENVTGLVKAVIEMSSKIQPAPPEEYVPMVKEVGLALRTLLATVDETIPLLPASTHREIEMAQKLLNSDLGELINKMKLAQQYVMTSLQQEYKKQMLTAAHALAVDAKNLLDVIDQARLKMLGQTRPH
Dual specificity mitogen-activated protein kinase kinase 3 (Homo sapiens), sequence (P46734 whole entry): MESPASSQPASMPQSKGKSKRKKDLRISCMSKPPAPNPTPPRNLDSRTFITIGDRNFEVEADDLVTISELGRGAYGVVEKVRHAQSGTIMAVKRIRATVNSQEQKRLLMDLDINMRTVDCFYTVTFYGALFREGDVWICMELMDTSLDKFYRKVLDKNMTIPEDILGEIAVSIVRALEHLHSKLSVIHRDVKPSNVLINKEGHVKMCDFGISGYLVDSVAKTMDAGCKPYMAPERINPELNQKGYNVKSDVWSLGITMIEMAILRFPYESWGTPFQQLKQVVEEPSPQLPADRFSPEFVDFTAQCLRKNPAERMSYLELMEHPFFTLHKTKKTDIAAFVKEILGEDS

For `Cc1cc(C)c(CNc2nc(Cl)nc3c2ncn3C2CCCC2)c(=O)[nH]1`, the Activity in experiment [1] was found to be 104%; in experiment [2] it was 106%; in experiment [3] it was 97.5%; in experiment [4] it was 107%; in experiment [5], 102%; in experiment [6], 97.5%. In addition, the Activity in the experiment with HCT-116 was found to be 5.35%; in experiment [7], 100%.
